Measurements as given in the supplement of paper PMC13380429.

Columns and labels:
Settings in all cases: 72 h
Vero E6 [1] = test: cell viability relative to DMSO; higher = less toxic
U2OS [2] = test: as above
Calu-3 [3] = test: as above
HepG2 [4] = test: as above
Caco-2 [5] = test: as above
Vero E6 [6] = test: drug sensitivity score (DSS) for viability; higher = more toxic; extreme values may be limits of the assay
U2OS [7] = test: as above
Calu-3 [8] = test: as above
HepG2 [9] = test: as above
Caco-2 [10] = test: as above
Vero E6 [11] = test: relative viability EC50 (midpoint between 100% and the lowest measured viability); higher = less toxic
U2OS [12] = test: as above
Calu-3 [13] = test: as above
HepG2 [14] = test: as above
Caco-2 [15] = test: as above

Structure (SMILES) | cell viability (Vero E6 [1]; 1 nM) [%] | cell viability (Vero E6 [1]; 10 nM) [%] | cell viability (Vero E6 [1]; 100 nM) [%] | cell viability (Vero E6 [1]; 1000 nM) [%] | cell viability (Vero E6 [1]; 10000 nM) [%] | cell viability (U2OS [2]; 1 nM) [%] | cell viability (U2OS [2]; 10 nM) [%] | cell viability (U2OS [2]; 100 nM) [%] | cell viability (U2OS [2]; 1000 nM) [%] | cell viability (U2OS [2]; 10000 nM) [%] | cell viability (Calu-3 [3]; 1 nM) [%] | cell viability (Calu-3 [3]; 10 nM) [%] | cell viability (Calu-3 [3]; 100 nM) [%] | cell viability (Calu-3 [3]; 1000 nM) [%] | cell viability (Calu-3 [3]; 10000 nM) [%] | cell viability (HepG2 [4]; 1 nM) [%] | cell viability (HepG2 [4]; 10 nM) [%] | cell viability (HepG2 [4]; 100 nM) [%] | cell viability (HepG2 [4]; 1000 nM) [%] | cell viability (HepG2 [4]; 10000 nM) [%] | cell viability (Caco-2 [5]; 1 nM) [%] | cell viability (Caco-2 [5]; 10 nM) [%] | cell viability (Caco-2 [5]; 100 nM) [%] | cell viability (Caco-2 [5]; 1000 nM) [%] | cell viability (Caco-2 [5]; 10000 nM) [%] | drug sensitivity score (Vero E6 [6]) | drug sensitivity score (U2OS [7]) | drug sensitivity score (Calu-3 [8]) | drug sensitivity score (HepG2 [9]) | drug sensitivity score (Caco-2 [10]) | relative viability EC50 (Vero E6 [11]) [µM] | relative viability EC50 (U2OS [12]) [µM] | relative viability EC50 (Calu-3 [13]) [µM] | relative viability EC50 (HepG2 [14]) [µM] | relative viability EC50 (Caco-2 [15]) [µM]
CC(=O)O[C@H]1C[C@H](O[C@H]2[C@@H](O)C[C@H](O[C@H]3[C@@H](O)C[C@H](O[C@H]4CC[C@@]5(C)[C@H](CC[C@@H]6[C@@H]5C[C@@H](O)[C@]5(C)[C@@H](C7=CC(=O)OC7)CC[C@]65O)C4)O[C@@H]3C)O[C@@H]2C)O[C@H](C)[C@H]1O[C@@H]1O[C@H](CO)[C@@H](O)[C@H](O)[C@H]1O [lanatoside-C] | 92.5 | 92 | 23.4 | 0.8 | 0.9 | 101 | 97.3 | 87.4 | 3.4 | 6.7 | 107 | 95.1 | 80.7 | 30.6 | 18.7 | 99.4 | 97.7 | 83.3 | 30.9 | 5.9 | 102 | 99 | 66.4 | 17.6 | 18.4 | 27.8 | 19.5 | 15.2 | 15 | 19.5 | 0.0458 | 0.211 | 0.248 | 0.396 | 0.116
COC(=O)/C=C/C(=O)N[C@@H]1CC[C@@]2(O)[C@H]3Cc4ccc(O)c5c4[C@@]2(CCN3CC2CC2)[C@H]1O5 [beta-funaltrexamine] | 92.4 | 96.1 | 93.1 | 105 | 101 | 104 | 98.7 | 101 | 96.3 | 89.9 | 95.2 | 99.5 | 101 | 102 | 99.6 | 93.6 | 92.8 | 92.4 | 90.6 | 89.2 | 104 | 91.5 | 90 | 94.8 | 82.4 | 0 | 0 | 0 | 0 | 0.7 | > 10 | > 10 | > 10 | > 10 | > 10
O=C(Nc1ccc(Cl)cc1)Nc1cccc(-c2cccc(N3CCCC3)n2)c1 [PSNCBAM-1] | 108 | 96.7 | 102 | 105 | 91.8 | 98.8 | 102 | 96.6 | 98.7 | 102 | 102 | 98.9 | 95 | 97.9 | 104 | 101 | 110 | 102 | 102 | 99.1 | 98.3 | 91.9 | 96.2 | 93.7 | 99.4 | 0 | 0 | 0 | 0 | 0 | > 10 | > 10 | > 10 | > 10 | > 10
N#CCCCSC(=N)N [kevetrin] | 96.6 | 98.4 | 92.6 | 101 | 98.9 | 97.9 | 102 | 96.3 | 97.5 | 96.3 | 108 | 90.9 | 92.8 | 105 | 93.1 | 107 | 97.4 | 101 | 93.6 | 101 | 92 | 99.3 | 96.6 | 99.8 | 99.7 | 0 | 0 | 0 | 0 | 0 | > 10 | > 10 | > 10 | > 10 | > 10
CCCC(=O)O[C@]1(C(=O)COC(C)=O)CC[C@H]2[C@@H]3C[C@H](F)C4=CC(=O)C=C[C@]4(C)[C@@]3(F)[C@@H](O)C[C@@]21C [difluprednate] | 96.9 | 97 | 95.3 | 98.9 | 94.2 | 99.5 | 93.3 | 93.4 | 94.1 | 92.1 | 106 | 90.7 | 87.7 | 90.5 | 102 | 97.5 | 93.7 | 107 | 105 | 88.3 | 96.6 | 93.2 | 98.3 | 101 | 91.8 | 0 | 0 | 0 | 0 | 0 | > 10 | > 10 | > 10 | > 10 | > 10
CC(C)(Oc1ccc(C2CC2(Cl)Cl)cc1)C(=O)O (stereo not given) [ciprofibrate] | 94.1 | 94.4 | 93.4 | 97.2 | 108 | 93.2 | 98.3 | 99.6 | 94.7 | 91.7 | 104 | 98.1 | 96.5 | 93.7 | 95.9 | 96.3 | 106 | 99.2 | 96.1 | 100 | 101 | 93.5 | 103 | 86.7 | 102 | 0 | 0 | 0 | 0 | 0 | > 10 | > 10 | > 10 | > 10 | > 10
Nc1n[nH]c2nnc(-c3c(-c4ccccc4)nn4ccccc34)cc12 | 105 | 93.6 | 97 | 94.8 | 84.5 | 98.2 | 102 | 94.9 | 102 | 89.1 | 98.9 | 102 | 99.8 | 90 | 95 | 102 | 95.2 | 103 | 97.9 | 91.8 | 95.7 | 107 | 90.4 | 97.1 | 84.3 | 0.2 | 0 | 0 | 0 | 0.2 | > 10 | > 10 | > 10 | > 10 | > 10
N=C1N[C@H]2[C@H](CS[C@H]2CCCCC(=O)O)N1 [2-iminobiotin] | 110 | 106 | 105 | 97.5 | 102 | 102 | 102 | 99.5 | 104 | 98.3 | 105 | 98.8 | 101 | 118 | 106 | 100 | 102 | 106 | 97.6 | 106 | 93.6 | 105 | 96.8 | 98.8 | 98 | 0 | 0 | 0 | 0 | 0 | > 10 | > 10 | > 10 | > 10 | > 10
O=c1c2ccccc2oc2ccccc12 [xanthone] | 104 | 100 | 101 | 99.1 | 95.9 | 101 | 94.9 | 99 | 97.9 | 100 | 95.3 | 96.5 | 103 | 104 | 104 | 108 | 93.8 | 93.5 | 110 | 93.6 | 102 | 98.6 | 101 | 95.1 | 106 | 0 | 0 | 0 | 0 | 0 | > 10 | > 10 | > 10 | > 10 | > 10
Cn1cnc(N)c2ncnc1-2 [3-methyladenine] | 95.1 | 103 | 102 | 96.6 | 96.5 | 103 | 97.1 | 98.3 | 97.9 | 99.8 | 104 | 101 | 95.2 | 106 | 106 | 103 | 102 | 89.6 | 101 | 90.5 | 99.3 | 94.8 | 108 | 102 | 100 | 0 | 0 | 0 | 0 | 0 | > 10 | > 10 | > 10 | > 10 | > 10
COC(=O)/C=C/c1cccc(N(Cc2ccc(-c3ccc(N(C)C)cc3)cc2)C(=O)C2CCCCC2)c1 [fexaramine] | 107 | 103 | 99.4 | 98.3 | 88.8 | 103 | 97.5 | 99.9 | 97 | 88.5 | 110 | 95.4 | 104 | 96.5 | 92.3 | 105 | 104 | 97.4 | 101 | 83.5 | 104 | 99.9 | 104 | 92 | 81.1 | 0.1 | 0.1 | 0 | 0.3 | 1.3 | > 10 | > 10 | > 10 | > 10 | > 10
CC(C)Oc1cccc(CC(=O)N2CCC[C@](CC[N+]34CCC(c5ccccc5)(CC3)CC4)(c3ccc(Cl)c(Cl)c3)C2)c1 | 101 | 98.2 | 100 | 95.8 | 97 | 96.8 | 99.4 | 96.8 | 99.3 | 98.8 | 87.6 | 98.1 | 91.1 | 92.5 | 99.1 | 110 | 84.1 | 104 | 91 | 95.7 | 102 | 99.7 | 100 | 97.9 | 91.8 | 0 | 0 | 0 | 0 | 0 | > 10 | > 10 | > 10 | > 10 | > 10
Cc1ccc2c(c1)Cc1c(C(=O)NN3CCCCC3)nn(-c3ccc(Cl)cc3Cl)c1-2 [GP1a] | 99.9 | 100 | 103 | 100 | 98.6 | 99.4 | 108 | 97.7 | 101 | 89.7 | 99.6 | 101 | 91.8 | 101 | 86.7 | 100 | 96.9 | 98.4 | 91.9 | 91.3 | 102 | 102 | 103 | 99.5 | 84.1 | 0 | 0 | 0.1 | 0 | 0.3 | > 10 | > 10 | > 10 | > 10 | > 10
